Assay results reported in patent US20150105252A1, “SUBSTITUTED PYRAZOLES AS HERBICIDES” (E I DU PONT DE NEMOURS AND COMPANY, priority 2013, published 2015).

Columns and labels:
[1] = system: foxtail, giant; test: Test C preemergence; format: in vivo, Setaria faberii
Method in brief: (§1)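 Postemergence values come from plants sprayed at the 1- to 4-leaf stage (2–18 cm) in peat moss–vermiculite medium; preemergence values from seeds treated in a loam–sand blend. Both evaluated visually against controls after 13–15 greenhouse days, scale 0–100.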

[2] = system: ragweed; test: Test C preemergence; format: in vivo, Ambrosia elation
Method in brief: as §1

[3] = system: barnyardgrass; test: Test B flood; format: in vivo, Echinochloa crus-galli; details: 250 g ai/ha, visual rating on 0 to 100 scale (0 no effect, 100 complete control), 13 to 15 days
Method in brief: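 Plants were grown to the 2-leaf stage, then pots were flooded to 3 cm above the soil and compounds were applied directly into the paddy water. Water depth was held for the whole test; after 13 to 15 days in a greenhouse, injury was visually rated against untreated controls (0 = no effect, 100 = complete control).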

[4] = system: kochia; test: Test C postemergence; format: in vivo, Kochia scoparia; details: for Plant response rating (scale of 0 to 100 where 0 is no effect and 100 is complete control), Kochia: Postemergence, 31 g ai/ha, visually evaluated after 13 to 15 days; for Kochia plant response rating / Plant response rating, Kochia: postemergence; for Kochia plant response rating: 62 g ai/ha, scale 0 to 100
Method in brief: as §1

[5] = system: oilseed rape; test: Test C postemergence; format: in vivo, Brassica napus; details: for Oilseed Rape plant response rating / Plant response rating, Oilseed Rape: postemergence; for Oilseed Rape plant response rating: 62 g ai/ha, scale 0 to 100
Method in brief: as §1

[6] = system: pigweed; test: Test C preemergence; format: in vivo, Amaranthus retroflexus
Method in brief: as §1

[7] = system: pigweed; test: Test A preemergence; format: in vivo, Amaranthus retroflexus; details: preemergence
Method in brief: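 Both timings tested concurrently in loam/sand soil: preemergence by directed soil spray, postemergence on plants of 2–10 cm at the one- to two-leaf stage. Greenhouse holding period was approximately 10 days before visual injury assessment (0–100, 0 = no effect).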

[8] = system: soybean; test: Test C postemergence; format: in vivo, Glycine max; details: for Soybean plant response rating / Plant response rating, Soybean: postemergence
Method in brief: as §1

[9] = system: ragweed; test: Test C postemergence; format: in vivo, Ambrosia elation
Method in brief: as §1

[10] = system: oat, wild; test: Test C postemergence; format: in vivo, Avena fatua; details: for Plant response rating (scale of 0 to 100 where 0 is no effect and 100 is complete control), Oat, Wild: Postemergence, 31 g ai/ha, visually evaluated after 13 to 15 days; for Oat, Wild plant response rating / Plant response rating, Oat, Wild: postemergence; for Oat, Wild plant response rating: 62 g ai/ha, scale 0 to 100
Method in brief: as §1

[11] = system: oilseed rape; test: Test C preemergence; format: in vivo, Brassica napus
Method in brief: as §1

[12] = system: nutsedge, yellow; test: Test C postemergence; format: in vivo, Cyperus esculentus; details: for Plant response rating (scale of 0 to 100 where 0 is no effect and 100 is complete control), Nutsedge, Yellow: Postemergence, 31 g ai/ha, visually evaluated after 13 to 15 days; for Nutsedge, Yellow plant response rating / Plant response rating, Nutsedge, Yellow: postemergence; for Nutsedge, Yellow plant response rating: 62 g ai/ha, scale 0 to 100
Method in brief: as §1

[13] = preemergence, 31 g ai/ha, visual rating, scale 0 to 100 (0 no effect, 100 complete control), 13 to 15 days
[14] = preemergence, 62 g ai/ha, scale 0 to 100 (0 no effect, 100 complete control), 13 to 15 days
[15] = preemergence, 125 g ai/ha, scale 0 to 100, 0 is no effect, 100 is complete control
[16] = 250 g ai/ha, scale 0 to 100 (0 no effect, 100 complete control)
[17] = 125 g ai/ha, scale 0 to 100, 0 no effect, 100 complete control
[18] = Postemergence, 31 g ai/ha, visually evaluated after 13 to 15 days
[19] = postemergence, 250 g ai/ha, scale 0 to 100 (0 no effect, 100 complete control)
[20] = postemergence, 125 g ai/ha, scale 0 to 100, 0 no effect, 100 complete control
[21] = Preemergence, rate head not shown (block before 16 g ai/ha), scale 0 to 100
[22] = preemergence, 125 g ai/ha, 13 to 15 days, scale 0 to 100, 0 = no effect, 100 = complete control
[23] = preemergence, 250 g ai/ha, scale 0 to 100, 0 is no effect, 100 is complete control

SMILES: CCc1cc(C(=O)NOC(C)C)nn1Cc1ccnc(OC(F)F)c1 [Compound 126]
- Plant response rating (scale of 0 to 100), Foxtail, Giant ([1]; Preemergence, 250 g ai/ha): 100
- Foxtail, Giant plant response rating [1, 13]: 45
- Foxtail, Giant plant response rating [1, 14]: 85
- Foxtail, Giant plant response rating [1, 15]: 98
- Plant response rating (scale of 0 to 100), Ragweed ([2]; Preemergence, 250 g ai/ha): 90
- Ragweed plant response rating [2, 13]: 70
- Ragweed plant response rating [2, 14]: 100
- Ragweed plant response rating [2, 15]: 100
- Plant response rating, Barnyardgrass [3]: 40
- Plant response rating (scale of 0 to 100 where 0 is no effect and 100 is complete control), Kochia [4]: 55
- Kochia plant response rating [4]: 50
- Plant response rating, Kochia [4, 16]: 65
- Plant response rating, Kochia [4, 17]: 65
- Plant response rating (scale of 0 to 100 where 0 is no effect and 100 is complete control), Oilseed Rape [5, 18]: 45
- Oilseed Rape plant response rating [5]: 50
- Plant response rating, Oilseed Rape [5, 16]: 70
- Plant response rating, Oilseed Rape [5, 17]: 60
- Plant response rating (scale of 0 to 100), Pigweed ([6]; Preemergence, 250 g ai/ha): 100
- Pigweed plant response rating [6, 13]: 100
- Pigweed plant response rating [6, 14]: 85
- Pigweed plant response rating [6, 15]: 100
- Pigweed plant response rating ([7]; 125 g ai/ha, visual injury, 0 to 100 scale, approx. 10 days): 100
- Pigweed plant response rating ([7]; 500 g ai/ha, visual injury after approx. 10 days, 0 to 100 scale (0 no effect, 100 complete control)): 100
- Plant response rating (scale of 0 to 100 where 0 is no effect and 100 is complete control), Soybean [8, 18]: 40
- Soybean plant response rating ([8]; 62 g ai/ha, scale 0 to 100): 45
- Plant response rating, Soybean [8, 16]: 65
- Plant response rating, Soybean [8, 17]: 55
- Plant response rating (scale of 0 to 100 where 0 is no effect and 100 is complete control), Ragweed [9, 18]: 30
- Ragweed plant response rating ([9]; postemergence, 62 g ai/ha, scale 0 to 100): 35
- Plant response rating, Ragweed [9, 19]: 80
- Plant response rating, Ragweed [9, 20]: 55
- Plant response rating (scale of 0 to 100 where 0 is no effect and 100 is complete control), Oat, Wild [10]: 35
- Oat, Wild plant response rating [10]: 15
- Plant response rating, Oat, Wild [10, 16]: 50
- Plant response rating, Oat, Wild [10, 17]: 20
- Plant response rating (scale of 0 to 100), Oilseed Rape ([11]; Preemergence, 250 g ai/ha): 100
- Oilseed Rape plant response rating [11, 13]: 85
- Oilseed Rape plant response rating [11, 14]: 100
- Oilseed Rape plant response rating [11, 15]: 100
- Plant response rating (scale of 0 to 100 where 0 is no effect and 100 is complete control), Nutsedge, Yellow [12]: 5
- Nutsedge, Yellow plant response rating [12]: 5
- Plant response rating, Nutsedge, Yellow [12, 16]: 15
- Plant response rating, Nutsedge, Yellow [12, 17]: 5

SMILES: CCc1cc(C(=O)NCC(F)(F)F)nn1Cc1ccnc(Br)c1 [Compound 224]
- Plant response rating, Foxtail, Giant [1, 21]: 95
- Foxtail, Giant plant response rating [1, 14]: 100
- Plant response rating, Foxtail, Giant [1, 22]: 100
- Foxtail, Giant plant response rating [1, 23]: 100
- Plant response rating, Ragweed [2, 21]: 85
- Ragweed plant response rating [2, 14]: 85
- Plant response rating, Ragweed [2, 22]: 95
- Ragweed plant response rating [2, 23]: 100
- Plant response rating, Barnyardgrass [3]: 20
- Plant response rating (scale of 0 to 100 where 0 is no effect and 100 is complete control), Kochia [4]: 80
- Kochia plant response rating [4]: 85
- Plant response rating, Kochia [4, 16]: 90
- Plant response rating, Kochia [4, 17]: 90
- Oilseed Rape plant response rating [5]: 50
- Plant response rating, Oilseed Rape [5, 16]: 55
- Plant response rating, Oilseed Rape [5, 17]: 50
- Plant response rating, Pigweed [6, 21]: 100
- Pigweed plant response rating [6, 14]: 100
- Plant response rating, Pigweed [6, 22]: 100
- Pigweed plant response rating [6, 23]: 100
- Pigweed plant response rating (0 to 100 scale) ([7]; 125 g ai/ha, visual injury approx. 10 days after treatment): 100
- Plant response rating, Soybean [8, 16]: 60
- Soybean plant response rating [8, 17]: 70
- Plant response rating, Ragweed [9, 19]: 35
- Plant response rating, Ragweed [9, 20]: 10
- Plant response rating (scale of 0 to 100 where 0 is no effect and 100 is complete control), Oat, Wild [10]: 5
- Oat, Wild plant response rating [10]: 5
- Plant response rating, Oat, Wild [10, 16]: 10
- Plant response rating, Oat, Wild [10, 17]: 10
- Plant response rating, Oilseed Rape [11, 21]: 80
- Oilseed Rape plant response rating [11, 14]: 90
- Plant response rating, Oilseed Rape [11, 22]: 95
- Oilseed Rape plant response rating [11, 23]: 95
- Plant response rating (scale of 0 to 100 where 0 is no effect and 100 is complete control), Nutsedge, Yellow [12]: 0
- Nutsedge, Yellow plant response rating [12]: 0
- Plant response rating, Nutsedge, Yellow [12, 16]: 5
- Plant response rating, Nutsedge, Yellow [12, 17]: 5
